Source: ChEMBL document CHEMBL1142855, “Hydroxylated N-alkyl-4-piperidinyl-2,3-diarylpyrrole derivatives as potent broad-spectrum anticoccidial agents” (Bioorg Med Chem Lett, 2005)

Legend:
Eimeria tenella [1] = experiment: Anticoccidial activity as percentage reduction in oocyst production in birds infected with Eimeria tenella after 100 ppm dose; Range is 50-79%; format: functional
Eimeria acervulina = experiment: Anticoccidial activity as percentage reduction in oocyst production in birds infected with Eimeria acervulina after 100 ppm dose; format: functional
Eimeria tenella [2] = experiment: Anticoccidial activity as percentage reduction in oocyst production in birds infected with Eimeria tenella after 100 ppm dose; format: functional
[3] = molecular target: cGMP-dependent protein kinase (Eimeria tenella, UniProt Q8MMZ8); experiment: Inhibitory activity against cGMP-dependent protein kinase from Eimeria tenella
Chain of cGMP-dependent protein kinase (Q8MMZ8 whole entry): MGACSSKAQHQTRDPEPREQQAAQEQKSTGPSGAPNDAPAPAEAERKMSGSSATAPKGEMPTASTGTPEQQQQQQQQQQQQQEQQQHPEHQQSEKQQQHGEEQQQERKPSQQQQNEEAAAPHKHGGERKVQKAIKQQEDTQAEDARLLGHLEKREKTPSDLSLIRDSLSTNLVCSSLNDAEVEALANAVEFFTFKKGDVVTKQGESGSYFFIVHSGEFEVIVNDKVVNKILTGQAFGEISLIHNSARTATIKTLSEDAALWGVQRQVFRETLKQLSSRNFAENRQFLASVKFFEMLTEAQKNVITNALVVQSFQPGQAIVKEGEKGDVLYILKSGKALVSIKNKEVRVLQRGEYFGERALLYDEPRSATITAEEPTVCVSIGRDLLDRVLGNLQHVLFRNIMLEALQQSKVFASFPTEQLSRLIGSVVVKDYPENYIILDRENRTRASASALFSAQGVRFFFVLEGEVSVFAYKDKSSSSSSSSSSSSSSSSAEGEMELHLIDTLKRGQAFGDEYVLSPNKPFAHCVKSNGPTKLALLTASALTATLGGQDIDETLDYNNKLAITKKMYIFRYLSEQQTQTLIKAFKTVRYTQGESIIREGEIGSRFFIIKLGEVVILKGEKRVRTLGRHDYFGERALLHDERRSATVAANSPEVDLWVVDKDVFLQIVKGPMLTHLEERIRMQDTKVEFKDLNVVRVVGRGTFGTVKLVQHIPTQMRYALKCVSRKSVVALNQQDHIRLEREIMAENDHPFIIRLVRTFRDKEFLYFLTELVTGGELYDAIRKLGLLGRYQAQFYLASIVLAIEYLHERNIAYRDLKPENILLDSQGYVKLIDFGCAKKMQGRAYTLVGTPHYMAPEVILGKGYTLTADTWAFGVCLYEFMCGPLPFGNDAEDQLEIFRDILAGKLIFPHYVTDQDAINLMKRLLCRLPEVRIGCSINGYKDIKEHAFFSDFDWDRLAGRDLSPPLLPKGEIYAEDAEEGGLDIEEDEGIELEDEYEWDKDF

| Structure (SMILES) | IC50 [3] | Anticoccidial Activity (Eimeria tenella [1]) | Anticoccidial Activity (Eimeria acervulina) | Anticoccidial Activity (Eimeria tenella [2]) |
| --- | --- | --- | --- | --- |
| OCCCN1CCC(c2cc(-c3ccncc3)c(-c3ccc(F)cc3)[nH]2)CC1 |  | 79% | >80% |  |
| OCCN1CCC(c2cc(-c3ccncc3)c(-c3ccc(F)cc3)[nH]2)CC1 |  |  | >80% | >80% |
| CCCN1CCC(c2cc(-c3ccncc3)c(-c3ccc(F)cc3)[nH]2)CC1 |  |  | <50% | <50% |
| CC(O)[C@H](CO)N1CCC(c2cc(-c3ccncc3)c(-c3ccc(F)cc3)[nH]2)CC1 (stereo partly specified) | 0.82 nM |  | >80% | >80% |
| OCCCCN1CCC(c2cc(-c3ccncc3)c(-c3ccc(F)cc3)[nH]2)CC1 | 1.34 nM |  | >80% | >80% |
| OC(COCc1ccco1)CN1CCC(c2cc(-c3ccncc3)c(-c3ccc(F)cc3)[nH]2)CC1 (stereo unspecified) | 0.82 nM |  | <50% | <50% |
| C[C@H](O)CN1CCC(c2cc(-c3ccncc3)c(-c3ccc(F)cc3)[nH]2)CC1 | 0.48 nM |  | >80% | >80% |
| CC(O)C(O)CN1CCC(c2cc(-c3ccncc3)c(-c3ccc(F)cc3)[nH]2)CC1 (stereo unspecified) | 0.4 nM |  | >80% | >80% |
| OC(Cc1ccccc1)CN1CCC(c2cc(-c3ccncc3)c(-c3ccc(F)cc3)[nH]2)CC1 (stereo unspecified) | 1.28 nM |  | >80% | <50% |
| OCCCCCN1CCC(c2cc(-c3ccncc3)c(-c3ccc(F)cc3)[nH]2)CC1 | 1.46 nM |  | >80% | >80% |
| OC(COCc1ccccc1)CN1CCC(c2cc(-c3ccncc3)c(-c3ccc(F)cc3)[nH]2)CC1 (stereo unspecified) | 0.47 nM |  | <50% | <50% |
| CC(=O)N1C[C@H](O)CC1CN1CCC(c2cc(-c3ccncc3)c(-c3ccc(F)cc3)[nH]2)CC1 (stereo partly specified) | 2.2 nM |  |  |  |
| CC(O)[C@H](C)N1CCC(c2cc(-c3ccncc3)c(-c3ccc(F)cc3)[nH]2)CC1 (stereo partly specified) | 0.86 nM |  | >80% | >80% |
| CC(O)[C@@H](CO)N1CCC(c2cc(-c3ccncc3)c(-c3ccc(F)cc3)[nH]2)CC1 (stereo partly specified) | 1.01 nM |  | >80% | >80% |
| CC(=O)OCCN1CCC(c2cc(-c3ccncc3)c(-c3ccc(F)cc3)[nH]2)CC1 | 2.08 nM |  | <50% | <50% |
| CCCCCCC(O)CN1CCC(c2cc(-c3ccncc3)c(-c3ccc(F)cc3)[nH]2)CC1 (stereo unspecified) | 1.01 nM |  | <50% | <50% |
| OC(COc1ccccc1)CN1CCC(c2cc(-c3ccncc3)c(-c3ccc(F)cc3)[nH]2)CC1 (stereo unspecified) | 0.66 nM |  | <50% | <50% |
| O[C@H]1CNC(CN2CCC(c3cc(-c4ccncc4)c(-c4ccc(F)cc4)[nH]3)CC2)C1 (stereo partly specified) | 0.16 nM |  |  |  |
| CC(O)[C@@H](C)N1CCC(c2cc(-c3ccncc3)c(-c3ccc(F)cc3)[nH]2)CC1 (mixture of isomers) | 0.94 nM |  | >80% | >80% |

Now from value to compound, other results behind:

| IC50 [3] | Structure (SMILES) | Anticoccidial Activity (Eimeria tenella [1]) | Anticoccidial Activity (Eimeria acervulina) | Anticoccidial Activity (Eimeria tenella [2]) |
| --- | --- | --- | --- | --- |
| 0.71 nM | CCC(O)CN1CCC(c2cc(-c3ccncc3)c(-c3ccc(F)cc3)[nH]2)CC1 (stereo unspecified) |  | >80% | >80% |
| 0.38 nM | CCCC(O)CN1CCC(c2cc(-c3ccncc3)c(-c3ccc(F)cc3)[nH]2)CC1 (stereo unspecified) |  | <50% | <50% |
| 0.59 nM | CCOCC(O)CN1CCC(c2cc(-c3ccncc3)c(-c3ccc(F)cc3)[nH]2)CC1 (stereo unspecified) | 79% | >80% |  |
| 0.41 nM | CCCCC(O)CN1CCC(c2cc(-c3ccncc3)c(-c3ccc(F)cc3)[nH]2)CC1 (stereo unspecified) |  | <50% | <50% |
| 0.98 nM | CC(C)(C)OCC(O)CN1CCC(c2cc(-c3ccncc3)c(-c3ccc(F)cc3)[nH]2)CC1 (stereo unspecified) |  | <50% | <50% |
| 0.8 nM | C=CCOCC(O)CN1CCC(c2cc(-c3ccncc3)c(-c3ccc(F)cc3)[nH]2)CC1 (stereo unspecified) |  | <50% | <50% |
| 0.69 nM | COC[C@H](O)CN1CCC(c2cc(-c3ccncc3)c(-c3ccc(F)cc3)[nH]2)CC1 |  | >80% | >80% |
| 0.56 nM | COC[C@@H](O)CN1CCC(c2cc(-c3ccncc3)c(-c3ccc(F)cc3)[nH]2)CC1 |  | >80% | >80% |
| 0.69 nM | CC(C)OCC(O)CN1CCC(c2cc(-c3ccncc3)c(-c3ccc(F)cc3)[nH]2)CC1 (stereo unspecified) |  | <50% | <50% |
| 1.2 nM | C[C@@H](O)CN1CCC(c2cc(-c3ccncc3)c(-c3ccc(F)cc3)[nH]2)CC1 |  | >80% | >80% |
| 0.51 nM | OCC(O)CN1CCC(c2cc(-c3ccncc3)c(-c3ccc(F)cc3)[nH]2)CC1 (stereo in doubt; 5a) |  | <50% | >80% |
| 0.71 nM | OCC(O)CN1CCC(c2cc(-c3ccncc3)c(-c3ccc(F)cc3)[nH]2)CC1 (stereo in doubt; 5b) |  | >80% |  |
| 1.27 nM | OCC(O)CN1CCC(c2cc(-c3ccncc3)c(-c3ccc(F)cc3)[nH]2)CC1 (stereo in doubt; 5e) |  |  |  |
